Where a SMILES comes first, the peptide text is derived from it. Where no end group is shown, it is not given here. The star is where a group is joined. AMC = Cc1cc(=O)oc2cc(N*)ccc12; βNA = c1ccc2cc(N*)ccc2c1
Tests used:
[1] = biological target: E433A variant of PgDPP III (Porphyromonas gingivalis, UniProt Q7MX92, E433A); assay: biochemical; format: binding
[2] = tested on: DPP III fragment (1–679 aa); assay: Kinetic analysis / specific activity of the DPP III fragment; format: biochemical, Porphyromonas gingivalis; details: for kcat/Km: DPP III fragment, pH 8.0, 100 μM CoCl2, enzyme 40–100 nM; for kcat/Km / Km / kcat: 26°C; for Km / kcat: fluorimetric, pH 8.0 Tris-HCl (ionic strength 0.01M), 100 μM CoCl2, enzyme 40–100 nM, mean of at least two independent experiments ± SD
[3] = tested on: Full length PgDPP III (1–886 aa); format: biochemical, Porphyromonas gingivalis; details: for kcat/Km: full length, pH 8.0, 100 μM CoCl2, enzyme 0.5–1 nM; for kcat/Km of PgDPP III, fold lower than human DPP III: human DPP III data ref 70
PgDPP III = assay: Substrate specificity for PgDPP III, dipeptidyl-2NA substrates; format: biochemical, Porphyromonas gingivalis; details: for substrate preference / hydrolysis rate (in words): dipeptidyl-2NA substrates; for Relative hydrolysis rate: standard colorimetric assay, 37°C, pH 8.0, 50 mM Tris-HCl (I = 0.01), 100 μM CoCl2, Arg-Arg-2NA listed as 100
Method: DPP III activity was determined by a standard colorimetric assay described previously using Arg-Arg-2-naphthylamide (Arg2-2NA) and Arg-Arg-7-amido-4-methylcoumarin (Arg2-AMC) as substrates, at 37°C and pH 8.0, in 50 mM Tris-HCl buffer (I = 0.01) containing 100 μM CoCl2. […] The kinetic parameters were determined from the initial reaction rates, using a nonlinear regression program (GraphPad Prism version 5.04; GraphPad, La Jolla, CA, USA).
Cloning, expression, and purification of the recombinant proteins was performed as described in the Materials and methods section. Enzyme activity was assayed using a set of synthetic dipeptide-2-naphthylamide substrates as described previously. Full-length PgDPP III and the DPP III fragment (a. acids 1–679) were purified to apparent homogeneity according to SDS-PAGE, with estimated molecular weights of 102000 and 78000, respectively, which was in agreement with their predicted molecular masses (Fig 1A). We cloned and attempted to express three C-terminal fragments of different sizes. Only one (amino acids 648–886) was detected on SDS-PAGE. However, it could not be purified as all expressed protein was in insoluble inclusion bodies. This problem was not solved by attempts to yield soluble protein by refolding from inclusion bodies.

[4] = tested on: gingipain null-mutant KDP136 cells; details: compared to wild-type P. gingivalis ATCC 33277; cited from earlier work
From the text: (§1) Dipeptidyl peptidases of P. gingivalis have been the subject of extensive research because these exopeptidases liberate dipeptides from the amino-end of their natural substrates, and P. gingivalis is known to utilize dipeptides preferentially, instead of free amino acids, as the source of energy. Until now, beside DPP IV, which is a proven virulence factor, three other DPPs were reported: DPP5, DPP7 and DPP11 [67–69]. They are all serine peptidases, localized in the periplasm, but differ in their substrate specificity.

[5] = tested on: putative DPP III from P. gingivalis strain ATCC 33277; details: recombinant protein of gene PGN_1645; cited from earlier work
From the text: as §1

[6] = DPP III fragment vs full length PgDPP III
[7] = Arg2-2NA, yeast enzyme data ref 70
[8] = fluorimetric, 26°C, pH 8.0 Tris-HCl (ionic strength 0.01M), 100 μM CoCl2, enzyme 0.5–1 nM, mean of at least two independent experiments ± SD

E433A variant of PgDPP III, sequence (Q7MX92 whole entry E433A, the tested form may be a part): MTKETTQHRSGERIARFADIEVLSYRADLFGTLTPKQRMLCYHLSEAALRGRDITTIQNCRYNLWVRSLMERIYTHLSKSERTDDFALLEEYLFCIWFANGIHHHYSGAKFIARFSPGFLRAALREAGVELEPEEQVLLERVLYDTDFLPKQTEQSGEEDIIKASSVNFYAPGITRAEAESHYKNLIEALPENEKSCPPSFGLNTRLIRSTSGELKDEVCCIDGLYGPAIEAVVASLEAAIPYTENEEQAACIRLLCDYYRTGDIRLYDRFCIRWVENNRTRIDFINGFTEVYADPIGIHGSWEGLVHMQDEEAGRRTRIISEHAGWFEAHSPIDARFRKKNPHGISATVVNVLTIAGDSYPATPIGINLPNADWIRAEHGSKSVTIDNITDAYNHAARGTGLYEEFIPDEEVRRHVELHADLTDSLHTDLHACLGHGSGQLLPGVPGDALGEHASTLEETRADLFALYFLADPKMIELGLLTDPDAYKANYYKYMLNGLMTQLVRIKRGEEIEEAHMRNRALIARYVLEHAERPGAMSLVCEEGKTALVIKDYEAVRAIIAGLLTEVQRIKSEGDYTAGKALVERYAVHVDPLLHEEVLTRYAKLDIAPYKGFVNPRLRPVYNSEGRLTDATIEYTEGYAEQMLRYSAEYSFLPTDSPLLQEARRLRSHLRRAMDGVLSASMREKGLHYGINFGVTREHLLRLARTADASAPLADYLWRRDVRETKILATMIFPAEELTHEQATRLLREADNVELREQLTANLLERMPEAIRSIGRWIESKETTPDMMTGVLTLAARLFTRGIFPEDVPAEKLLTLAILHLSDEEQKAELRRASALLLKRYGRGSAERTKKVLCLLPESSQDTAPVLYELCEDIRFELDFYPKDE

Compound	Kd [1] [µM]	Km increase when C-terminal domain was removed [2, 6] [fold]	reduction in catalytic efficiency when C-terminal domain was removed [2, 6] [fold]	kcat/Km [2] [M⁻¹ s⁻¹]	Km [2] [µM]	kcat [2] [s⁻¹]	kcat [3, 8] [s⁻¹]	kcat/Km ([3]; 26°C) [M⁻¹ s⁻¹]	kcat/Km of PgDPP III, fold lower than human DPP III [3] [fold]	Relative hydrolysis rate (PgDPP III) [%]	other results
CC[C@H](C)[C@H](NC(=O)[C@H](Cc1ccc(O)cc1)NC(=O)[C@@H](NC(=O)[C@H](CCCNC(=N)N)NC(=O)[C@@H](N)CC(=O)O)C(C)C)C(=O)N[C@@H](Cc1cnc[nH]1)C(=O)N1CCC[C@H]1C(=O)N[C@@H](Cc1ccccc1)C(=O)O [angiotensin II]	0.9 ± 0.12										
N=C(N)NCCC[C@H](NC(=O)[C@@H](N)CCCNC(=N)N)C(=O)Nc1ccc2ccccc2c1 [Arg-Arg-2NA, Arg-Arg-2-naphthylamide] (H-Arg-Arg-βNA)		4	1050	732	4.37 ± 0.42	0.0032 ± 0.0005	0.75 ± 0.13	773200	12	100	specific activity of DPP III fragment, fold lower than full-length protein ([2]; hydrolysis of Arg2-2NA, vs full-length PgDPP III): 250 fold; Km decrease, PgDPP III vs yeast counterpart [3, 7]: 12 fold; kcat increase, PgDPP III vs yeast counterpart [3, 7]: 4.2 fold; kcat/Km of full-length PgDPP III, fold higher than yeast counterpart [3, 7]: 50 fold; Km and kcat compared to B. thetaiotaomicron DPP III (in words) ([3]; BtDPP III data ref 24): similarities in Km and kcat values; Km [3, 8]: 0.97 ± 0.16 µM; catalytic efficiency, Arg-Arg-2NA fold higher than Arg-Arg-AMC ([3]; full length PgDPP III): 6.8 fold; kcat, Arg-Arg-2NA fold higher than Arg-Arg-AMC ([3]; full length PgDPP III): 2.6 fold; substrate preference / hydrolysis rate (in words) (PgDPP III; listed as Arg2-2NA): preference for Arg2-2NA; substrate preference / hydrolysis rate (in words) (PgDPP III; listed as diarginyl-2NA): PgDPP III prefers diarginyl-2NA
CC[C@H](C)[C@H](N)C(=O)N[C@H](C(=O)N[C@@H](Cc1ccc(O)cc1)C(=O)N1CCC[C@H]1C(=O)N[C@@H](Cc1c[nH]c2ccccc12)C(=O)O)C(C)C [IVYPW]	9.35 ± 0.73										
VVYPW [tynorphin]	7.3 ± 0.83										
NC(N)=NCCCC(NC(=O)c1ccccc1)C(=O)Nc1ccc2ccccc2c1 (stereo not shown) [BANA]										0	
Cc1cc(=O)oc2cc(NC(=O)[C@H](CCCNC(=N)N)NC(=O)[C@@H](N)CCCNC(=N)N)ccc12 [Arg-Arg-AMC, Arg-Arg-7-amido-4-methylcoumarin] (H-Arg-Arg-{AMC})		4	470	241	9.97 ± 0.44	0.0024 ± 0.0014	0.29 ± 0.11	113280	26		kcat reduction when C-terminal domain was removed [2, 6]: 120 fold; hydrolysis by mutant cells (in words) [4]: defects in Arg-Arg-AMC hydrolysis; activity among dipeptidyl-AMC substrates (in words) [5]: highest activity

From publication PMC5708649, “A novel Porphyromonas gingivalis enzyme: An atypical dipeptidyl peptidase III with an ARM repeat domain” (PLoS ONE, 2017)
